Measurements published in PMC6199744, “Development of Chemical Proteomics for the Folateome and Analysis of the Kinetoplastid Folateome” (ACS Infectious Diseases, 2018).
Where two headings read alike, the source gives them in different places.

Test system: T. brucei lysate proteins
Assay type: binding, Trypanosoma brucei
Conditions: vehicle control = 1

Structure (SMILES): NCCCNc1ccc(C(=O)NC(CCC(=O)O)C(=O)O)cc1 (centres unmarked) [compound 7]
- fold change vs vehicle control (protein TB427.04.760 GAMMA-ADAPTIN 1, PUTATIVE): 0.84
- fold change (protein TB427.05.1210 SHORT-CHAIN DEHYDROGENASE, PUTATIVE): 0.95
- fold change vs vehicle control (protein TB427.05.1320 HY[…], CONSERVED): 0.92
- fold change (protein TB427.05.3030 INTR[…] PROTEIN IFT122, PUTATIVE): 0.96
- fold change vs vehicle control (protein TB427.05.4560 GUANINE DEAMINASE, PUTATIVE): 0.91
- fold change vs vehicle control (protein TB427.06.1070 HY[…], CONSERVED): 1.17
- fold change (protein TB427.06.2550 RNA-BINDING PROTEIN, PUTATIVE): 1.51
- fold change (protein TB427.06.3500 ENDOSOMAL T[…] RME-8, PUTATIVE): 0.89
- fold change (protein TB427.06.3630 SPHINGOSINE 1-PHOSPHATE LYASE, PUTATIVE): 0.95
- fold change (protein TB427.06.3650 ADP-RI[…], PUTATIVE): 0.97
- fold change (protein TB427.06.3670 PAR[…] COMPONENT, PUTATIVE): 1
- fold change (protein TB427.06.700 ALANYL-TRNA SYNTHETASE, PUTATIVE): 0.84
- fold change vs vehicle control (protein TB427.07.1300 PROTEIN DISULFIDE ISOMERASE, PUTATIVE): 1.3
- fold change vs vehicle control (protein TB427.07.3160 DYNEIN HEAVY CHAIN, CYTOSOLIC, PUTATIVE): 0.87
- fold change (protein TB427.07.3980 IMMU[…], PUTATIVE): 0.91
- fold change vs vehicle control (protein TB427.07.4170 FATTY ACID ELONGASE, PUTATIVE): 0.97
- fold change (protein TB427.07.4180 FATTY ACID ELONGASE, PUTATIVE): 1.1
- fold change (protein TB427.07.4970 GLUTAMINE SYNTHETASE, PUTATIVE): 0.98
- fold change vs vehicle control (protein TB427.07.7500 THYMINE-7-HYDROXYLASE, PUTATIVE): 0.95
- fold change vs vehicle control (protein TB427.08.1210 HY[…], CONSERVED): 1.49
- fold change (protein TB427.08.2060 HY[…], CONSERVED): 0.91
- fold change (protein TB427.08.2080 HY[…], CONSERVED): 0.91
- fold change (protein TB427.08.3150 T-COMPLEX PROTEIN 1, GAMMA SUBUNIT, PUTATIVE): 0.97
- fold change (protein TB427.08.4210 HY[…], CONSERVED): 0.91
- fold change (protein TB427.08.5760 HY[…], CONSERVED): 0.99
- fold change (protein TB427.10.10350 PROTEIN KINASE, PUTATIVE): 0.62
- fold change (protein TB427.10.10360 MICROTUBULE-[…], PUTATIVE): 0.85
- fold change (protein TB427.10.1060 T-COMPLEX PROTEIN 1, DELTA SUBUNIT, PUTATIVE): 0.96
- fold change vs vehicle control (protein TB427.10.10610 PROTEIN TYROSINE PHOSPHATASE, PUTATIVE): 1.47
- fold change (protein TB427.10.1070 CELL DIVISION PROTEIN KINASE 2 HOMOLOG 1 (CRK1)): 0.93
- fold change vs vehicle control (protein TB427.10.11760 PUMILIO/PUF RNA BINDING PROTEIN 6): 0.99
- fold change (protein TB427.10.12710 HEAT SHOCK PROTEIN, PUTATIVE): 0.77
- fold change vs vehicle control (protein TB427.10.12820 HY[…], CONSERVED): 0.93
- fold change vs vehicle control (protein TB427.10.12890 BI[…]-TRNA SYNTHETASE, PUTATIVE): 0.98
- fold change (protein TB427.10.14140 PYRUVATE KINASE 1): 0.86
- fold change vs vehicle control (protein TB427.10.14180 PROTEIN TRANSPORT PROTEIN SEC13, PUTATIVE): 0.89
- fold change vs vehicle control (protein TB427.10.14470 INTR[…] PROTEIN IFT140, PUTATIVE): 1.33
- fold change (protein TB427.10.1450 HY[…], CONSERVED): 0.88
- fold change (protein TB427.10.14860 HY[…], CONSERVED): 0.95
- fold change vs vehicle control (protein TB427.10.14950 RNA BINDING PROTEIN, PUTATIVE): 1.37
- fold change (protein TB427.10.2350 PYRUVATE DEH[…] E3 BINDING PROTEIN, PUTATIVE): 0.93
- fold change (protein TB427.10.2440 METACASPASE MCA4): 0.83
- fold change vs vehicle control (protein TB427.10.3470 HY[…], CONSERVED): 1.2
- fold change (protein TB427.10.4610 […]-MANNOSE SYNTHASE, PUTATIVE): 0.98
- fold change vs vehicle control (protein TB427.10.5810 HY[…], CONSERVED): 0.88
- fold change (protein TB427.10.5840 T[…] 1-BETA, PUTATIVE): 0.92
- fold change (protein TB427.10.5850 HY[…], CONSERVED): 0.88
- fold change (protein TB427.10.6150 […]/BEIGE PROTEIN, PUTATIVE): 0.99
- fold change (protein TB427.10.6310 MAJOR VAULT PROTEIN, PUTATIVE): 0.93
- fold change (protein TB427.10.730 ATP SYNTHASE, PUTATIVE): 0.84
- fold change vs vehicle control (protein TB427.10.7410 SUCCINYL-COA LIGASE GDP-FORMING] BETA-CHAIN, PUTATIVE): 0.94
- fold change (protein TB427.10.8190 T-COMPLEX PROTEIN 1, THETA SUBUNIT, PUTATIVE): 0.94
- fold change vs vehicle control (protein TB427.10.8230 PROTEIN DISULFIDE ISOMERASE): 1.25
- fold change (protein TB427.10.8720 HY[…], CONSERVED): 1
- fold change vs vehicle control (protein TB427.10.8850 HY[…], CONSERVED): 0.93
- fold change (protein TB427.10.9890 HY[…], CONSERVED): 0.65
- fold change (protein TB927.10.12960 RAS-RELATED PROTEIN RAB-5): 0.98
- fold change (protein TB927.10.1550 […]-ATP-ASE SUBUNIT 5): 0.9
- fold change (protein TB927.1.2330 BETA TUBULIN): 0.99
- fold change vs vehicle control (protein TB927.10.2890 ENOLASE): 0.91
- fold change (protein TB927.10.3660 ASPARTATE AMINOTRANSFERASE): 0.96
- fold change (protein TB927.10.4180 TFIIF-[…] PHOSPHATASE, PUTATIVE): 0.87
- fold change (protein TB927.10.5500 HY[…], CONSERVED): 0.99
- fold change (protein TB927.10.6050 CLATHRIN HEAVY CHAIN): 0.87
- fold change vs vehicle control (protein TB927.10.8030 HY[…], CONSERVED): 1
- fold change vs vehicle control (protein TB927.10.8940 HY[…], CONSERVED): 0.97
- fold change (protein TB927.2.100 RETRO[…] SPOT (RHS) PROTEIN, PUTATIVE,RETRO[…] SPOT PROTEIN 1 (RHS1), PUTATIVE): 0.9
- fold change vs vehicle control (protein TB927.2.2440 […]-ATPASE SUBUNIT 6): 1.85
- fold change (protein TB927.2.3800 MRNA […], PUTATIVE): 0.77
- fold change (protein TB927.3.1240 PROTEIN PHOSPHATASE 2A, PUTATIVE): 0.77
- fold change vs vehicle control (protein TB927.3.2960 INOSINE-ADENOSINE-GUANOSINE-[…]): 0.82
- fold change (protein TB927.3.3190 SERINE/THREONINE-PROTEIN KINASE, PUTATIVE): 0.89
- fold change vs vehicle control (protein TB927.3.3450 ADP-RI[…]-LIKE PROTEIN 3A, PUTATIVE): 0.76
- fold change (protein TB927.3.3780 TRYPAREDOXIN): 0.9
- fold change vs vehicle control (protein TB927.3.5120 HY[…], CONSERVED (Ankyrin repeats (3 copies), putative)): 1.2
- fold change vs vehicle control (protein TB927.3.740 HY[…], CONSERVED): 0.97
- fold change (protein TB927.4.3590 T[…] 1-BETA, PUTATIVE): 0.77
- fold change (protein TB927.5.3220 SIGNAL PEPTIDASE TYPE I, PUTATIVE): 0.9
- fold change vs vehicle control (protein TB927.5.4440 DYNEIN LIGHT CHAIN, PUTATIVE): 1.1
- fold change (protein TB927.6.2200 HY[…], CONSERVED): 0.97
- fold change (protein TB927.6.4460 S-ADENOSYLMETHIONINE DECARBOXYLASE): 0.97
- fold change vs vehicle control (protein TB927.6.560 CYSTEINE PEPTIDASE C (CPC)): 1
- fold change vs vehicle control (protein TB927.7.4470 HY[…], CONSERVED): 1.22
- fold change (protein TB927.7.6320 HY[…], CONSERVED): 0.96
- fold change vs vehicle control (protein TB927.7.7430 ATP SYNTHASE ALPHA CHAIN, MIT[…]): 0.93
- fold change (protein TB927.8.1990 PEROXIDOXIN): 0.67
- fold change vs vehicle control (protein TB927.8.4810 PROHIBITIN 1): 0.99
- fold change (protein TB927.8.890 SMALL GTP-BINDING PROTEIN RAB1, PUTATIVE): 0.93
- fold change (protein TB-292 MEMBRANE ASSOCIATED PROTEIN): 0.93
